Values joined by “and” are separate entries in the source; they are usually repeats but may differ in a detail not shown here. Identical values can stand only once. Inconclusive results and toxic doses are left out. Rule for the calls: active = survival T/C of 150% or more; inactive = T/C below 125% in these data.
Tested on: BDF1 mice, B16 melanoma ip, median survival T/C
Test: NCI In Vivo Anticancer Drug Screen. Data for tumor model B16 Melanoma (intraperitoneal) in B6D2F1 (BDF1) mice
Conditions: endpoint: median survival time, higher = longer survival
Outline: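 Mice with transplantable tumors; drug vs vehicle groups; endpoint survival or tumor size; value = T/C.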

[1] = dose: 6.25 mg/kg/injection, schedule: Q01DX009 (ip), vehicle: saline
[2] = dose: 12.5 mg/kg/injection, schedule: Q01DX009 (ip), vehicle: saline
[3] = dose: 50.0 mg/kg/injection, schedule: Q01DX009 (ip), vehicle: saline with Tween-80
[4] = dose: 100.0 mg/kg/injection, schedule: Q01DX009 (ip), vehicle: saline with Tween-80
[5] = dose: 200.0 mg/kg/injection, schedule: Q01DX009 (ip), vehicle: saline with Tween-80
[6] = dose: 100.0 mg/kg/injection, schedule: Q01DX009 (ip), vehicle: Klucel (hydroxypropylcellulose) (HPC)
[7] = dose: 200.0 mg/kg/injection, schedule: Q01DX009 (ip), vehicle: Klucel (hydroxypropylcellulose) (HPC)
[8] = dose: 400.0 mg/kg/injection, schedule: Q01DX009 (ip), vehicle: Klucel (hydroxypropylcellulose) (HPC)
[9] = dose: 25.0 mg/kg/injection, schedule: Q01DX009 (ip), vehicle: Klucel (hydroxypropylcellulose) (HPC)
[10] = dose: 50.0 mg/kg/injection, schedule: Q01DX009 (ip), vehicle: Klucel (hydroxypropylcellulose) (HPC)

Measured: T/C

CCOc1ccc(-c2nc3ccc(-c4nc5ccc(N6CCN(C)CC6)cc5[nH]4)cc3[nH]2)cc1
inactive: dose: 3.12 mg/kg/injection, schedule: Q01DX009 (ip), vehicle: saline 106 % of control | [1] 113 % of control | [2] 112 % of control

CN(C)CC/C=C1\c2ccccc2CN(C)c2ccccc21
inactive: [1] 102 % of control | [2] 107 % of control | dose: 25.0 mg/kg/injection, schedule: Q01DX009 (ip), vehicle: saline 94 % of control | dose: 50.0 mg/kg/injection, schedule: Q01DX009 (ip), vehicle: saline 99 % of control

CC1NC(=O)C2Cc3ccc(O)c(c3)Oc3ccc(cc3)C(O)C(C(=O)N2C)N(C)C(=O)C(C)NC(=O)C(Cc2ccc(O)cc2)N(C)C(=O)C(C)NC1=O (stereo not given)
inactive: dose: 1.0 mg/kg/injection, schedule: Q01DX009 (ip), vehicle: saline with Tween-80 97 % of control | dose: 2.0 mg/kg/injection, schedule: Q01DX009 (ip), vehicle: saline with Tween-80 91 % of control | dose: 4.0 mg/kg/injection, schedule: Q01DX009 (ip), vehicle: saline with Tween-80 99 % of control | dose: 8.0 mg/kg/injection, schedule: Q01DX009 (ip), vehicle: saline with Tween-80 96 % of control | dose: 16.0 mg/kg/injection, schedule: Q01DX009 (ip), vehicle: saline with Tween-80 94 % of control

c1cc(NC2CCCCC2)ccc1CN1CCOCC1
inactive: dose: 12.5 mg/kg/injection, schedule: Q01DX009 (ip), vehicle: saline + Tween-80 + alcohol 100 % of control and 104 % of control | dose: 25.0 mg/kg/injection, schedule: Q01DX009 (ip), vehicle: saline + Tween-80 + alcohol 91 % of control and 102 % of control | dose: 50.0 mg/kg/injection, schedule: Q01DX009 (ip), vehicle: saline + Tween-80 + alcohol 91 % of control and 97 % of control | dose: 100.0 mg/kg/injection, schedule: Q01DX009 (ip), vehicle: saline + Tween-80 + alcohol 88 % of control and 97 % of control | dose: 200.0 mg/kg/injection, schedule: Q01DX009 (ip), vehicle: saline + Tween-80 + alcohol 88 % of control and 89 % of control | dose: 400.0 mg/kg/injection, schedule: Q01DX009 (ip), vehicle: saline + Tween-80 + alcohol 95 % of control

COC(=O)c1cccc(C)c1O
inactive: [3] 100 % of control | [4] 112 % of control

CC(C)C(Br)C(=O)NC(Cc1ccccc1)C(=O)O (stereo not given)
inactive: [4] 104 % of control | [5] 95 % of control

CCC[CH2][Sn-]([CH2]CCC)([CH2]CCC)[O]c1cc(Cl)c(Cl)cc1Cl
inactive: dose: 0.25 mg/kg/injection, schedule: Q01DX009 (ip), vehicle: Klucel (hydroxypropylcellulose) (HPC) 95 % of control | dose: 0.5 mg/kg/injection, schedule: Q01DX009 (ip), vehicle: Klucel (hydroxypropylcellulose) (HPC) 94 % of control | dose: 1.0 mg/kg/injection, schedule: Q01DX009 (ip), vehicle: Klucel (hydroxypropylcellulose) (HPC) 96 % of control

OC1CC2CCC(C1)N2CCCN1c2ccccc2Sc2ccc(Cl)cc21 (stereo not given)
inactive: dose: 25.0 mg/kg/injection, schedule: Q04DX003 (ip), vehicle: saline 97 % of control | dose: 50.0 mg/kg/injection, schedule: Q04DX003 (ip), vehicle: saline 90 % of control | dose: 100.0 mg/kg/injection, schedule: Q04DX003 (ip), vehicle: saline 93 % of control | dose: 200.0 mg/kg/injection, schedule: Q04DX003 (ip), vehicle: saline 88 % of control

O=C(NCCCCC(NC(=O)c1ccccc1)C(=O)O)OCc1ccccc1 (stereo not given)
inactive: [3] 101 % of control | [4] 96 % of control | [5] 95 % of control | dose: 400.0 mg/kg/injection, schedule: Q01DX009 (ip), vehicle: saline with Tween-80 86 % of control

COC1=C(C)C2CC(=O)OC3CC4C(C)CC(O)C(=O)C4(C)C(C1=O)C32C (stereo not given)
inactive: dose: 0.5 mg/kg/injection, schedule: Q01DX009 (ip), vehicle: saline + alcohol 110 % of control | dose: 1.0 mg/kg/injection, schedule: Q01DX009 (ip), vehicle: saline + alcohol 107 % of control | dose: 2.0 mg/kg/injection, schedule: Q01DX009 (ip), vehicle: saline + alcohol 99 % of control | dose: 4.0 mg/kg/injection, schedule: Q01DX009 (ip), vehicle: saline + alcohol 87 % of control | dose: 8.0 mg/kg/injection, schedule: Q01DX009 (ip), vehicle: saline + alcohol 99 % of control

CCOc1ccccc1NC(=O)Nc1cccc2ccccc12
inactive: [6] 103 % of control | [7] 100 % of control | [8] 103 % of control

COc1ccc(NC(=O)Nc2ccc(C)cc2C)cc1
inactive: [9] 106 % of control | [10] 101 % of control | [6] 106 % of control | [7] 93 % of control

CC(=O)Nc1ccc(C#N)c2ccccc12
inactive: [6] 124 % of control | [7] 111 % of control | [8] 111 % of control

CC(=O)OC1CCC2(C)C(CCC3C4CC=C(C(C)=O)C4(C)CCC32)C1 (stereo not given)
inactive: [6] 86 % of control | [7] 98 % of control | [8] 90 % of control

Cc1cc(C)nc(NC(=O)COc2ccc(Cl)cc2)c1
inactive: dose: 12.5 mg/kg/injection, schedule: Q01DX009 (ip), vehicle: Klucel (hydroxypropylcellulose) (HPC) 97 % of control | [10] 97 % of control and 106 % of control

COC1=C(Br)[C@H](O)[C@](O)(CC#N)C=C1Br
inactive: dose: 17.5 mg/kg/injection, schedule: Q01DX009 (ip), vehicle: Klucel (hydroxypropylcellulose) (HPC) 105 % of control | [9] 87 % of control | dose: 35.0 mg/kg/injection, schedule: Q01DX009 (ip), vehicle: Klucel (hydroxypropylcellulose) (HPC) 99 % of control | dose: 70.0 mg/kg/injection, schedule: Q01DX009 (ip), vehicle: Klucel (hydroxypropylcellulose) (HPC) 107 % of control

OCC(F)(F)C(F)(F)C(F)(F)F
inactive: dose: 75.0 mg/kg/injection, schedule: Q01DX009 (ip), vehicle: saline 105 % of control | dose: 150.0 mg/kg/injection, schedule: Q01DX009 (ip), vehicle: saline 106 % of control | dose: 300.0 mg/kg/injection, schedule: Q01DX009 (ip), vehicle: saline 100 % of control

CCN(CC)CCOc1ccc(NC2=C(Cl)C(=O)C(Nc3ccc(OCCN(CC)CC)cc3)=C(Cl)C2=O)cc1
inactive: dose: 6.25 mg/kg/injection, schedule: Q01DX009 (ip), vehicle: saline + alcohol 95 % of control | dose: 12.5 mg/kg/injection, schedule: Q01DX009 (ip), vehicle: saline + alcohol 98 % of control | dose: 25.0 mg/kg/injection, schedule: Q01DX009 (ip), vehicle: saline + alcohol 91 % of control

CCCCCCCCCCCCCCCC(=O)N(CCCN(CC)CC)C(C)CCCN(CC)CC (stereo not given)
inactive: dose: 0.78 mg/kg/injection, schedule: Q01DX009 (ip), vehicle: water 103 % of control | dose: 1.56 mg/kg/injection, schedule: Q01DX009 (ip), vehicle: Klucel (hydroxypropylcellulose) (HPC) 110 % of control | dose: 1.56 mg/kg/injection, schedule: Q01DX009 (ip), vehicle: water 104 % of control | dose: 3.13 mg/kg/injection, schedule: Q01DX009 (ip), vehicle: Klucel (hydroxypropylcellulose) (HPC) 102 % of control | dose: 3.13 mg/kg/injection, schedule: Q01DX009 (ip), vehicle: water 104 % of control | dose: 6.25 mg/kg/injection, schedule: Q01DX009 (ip), vehicle: Klucel (hydroxypropylcellulose) (HPC) 86 % of control and 97 % of control | dose: 6.25 mg/kg/injection, schedule: Q01DX009 (ip), vehicle: water 90 % of control

COc1ccc(/C=C(\NC(C)=O)C(=O)O)cc1
inactive: dose: 100.0 mg/kg/injection, schedule: Q04DX003 (ip), vehicle: Klucel (hydroxypropylcellulose) (HPC) 97 % of control | dose: 200.0 mg/kg/injection, schedule: Q04DX003 (ip), vehicle: Klucel (hydroxypropylcellulose) (HPC) 105 % of control | dose: 400.0 mg/kg/injection, schedule: Q04DX003 (ip), vehicle: Klucel (hydroxypropylcellulose) (HPC) 91 % of control

C/C=C(\C)C(=O)O[C@@H]1c2cc3c(cc2-c2c(cc(OC)c(OC)c2OC)[C@@H]2C(=O)OC[C@@H]12)OCO3
inactive: dose: 1.25 mg/kg/injection, schedule: Q01DX009 (ip), vehicle: Klucel (hydroxypropylcellulose) (HPC) 101 % of control | dose: 2.5 mg/kg/injection, schedule: Q01DX009 (ip), vehicle: Klucel (hydroxypropylcellulose) (HPC) 107 % of control | dose: 5.0 mg/kg/injection, schedule: Q01DX009 (ip), vehicle: Klucel (hydroxypropylcellulose) (HPC) 92 % of control | dose: 10.0 mg/kg/injection, schedule: Q01DX009 (ip), vehicle: Klucel (hydroxypropylcellulose) (HPC) 96 % of control

CSCCC(C#N)(CCN(C)C)c1ccccc1 (stereo not given)
inactive: dose: 25.0 mg/kg/injection, schedule: Q01DX009 (ip), vehicle: saline with Tween-80 113 % of control | [3] 107 % of control | [4] 111 % of control

— PubChem BioAssay AID192 (DTP/NCI, 2004)
